This note sets out measurements from patent US20260027124A1, “SUBSTITUTED IMIDAZO[1,2-A]PYRIDINE COMPOUNDS AND THE USE THEREOF IN THE TREATMENT AND PREVENTION OF FIBROSIS” (MOEXA PHARMACEUTICALS LIMITED, priority 2022, published 2026).

In the assay the test system is TGF-β. The assay is described as follows: TGFβ/SMAD Signaling Pathway SBE Reporter-HEK293 luciferase assay (inhibition of TGF-β). Type of assay: cell-based. The note with it: SBE reporter-HEK293 cells, human TGFβ1 20 ng/ml; for IC50: 4 h compound pre-incubation, ~18 hours, luciferase luminescence; for inhibitory activity against TGF-β: statement in words. The method, then: Transforming TGF-β regulates the proliferation and differentiation of fibroblasts, which are the primary constituent cells of fibrous tissues. As such, representative compounds of the present disclosure were tested for their ability to inhibit TGF-β.
• 1. TGFβ/SMAD Signaling Pathway SBE Reporter—HEK293 Cell Line BPS Bioscience Catalog #: 60653 • 2. Human TGFβ1 (BPS Bioscience #90900-1) • 3. SIS3 (Sigma #S0447): inhibitor of TGFβ pathway. Prepare stock solution in DMSO. • 4. Growth medium: MEM medium (Invitrogen #11095-080)+10% FBS (ATCC #30-2020)+1% non-essential amino acids (Lonza #13-114E)+1 mM Na pyruvate (Lonza #13-115E)+1% Penicillin/Streptomycin (ATCC #30-2300)+400 μg/ml of Geneticin (Invitrogen #11811-031). • 5. Assay medium: MEM medium+0.5% FBS+1% non-essential amino acids+1 mM Na pyruvate+1% Pen/Strep • 6. 96-well tissue culture-treated white clear-bottom assay plate (Corning #3610) • 7. ONE-Step™ Luciferase Assay System (BPS, Cat. #60690)
SBE reporter-HEK293 cells were harvested from culture in growth medium and seeded at a density of ˜10,000 cells per well into a white clear-bottom 96-well microplate in 100 μl of assay medium. The plate containing cells were incubated at 37° C. in a CO2 incubator. 24 hours after seeding, cells were washed with 100 μL of assay buffer and treated with three fold serial dilution of compounds in 50 μl assay medium. Cells were incubated at 37° C. in a CO2 incubator for 4 hours. For control wells 50 μl assay medium was added with no inhibitor. Each treatment was done in triplicate. After 4 hours of incubation, 5 μl of human TGFβ1 in assay medium was added to cells (final TGFβ1 concentration=20 ng/ml). 5 μl of assay medium was added to the unstimulated control wells (for determining the basal activity). The plate with cells was incubated at 37° C. in a CO2 incubator overnight (˜18 hours). After 18 hours of incubation Luciferase assay was performed using ONE-Step™ Luciferase Assay System according to the protocol provided: 50 μl of ONE-Step™ Luciferase reagent was added per well and shook at room temperature for ˜10 minutes. Luminescence was measured using a luminometer.

For `COc1cc2c(cc1OC)CN(C(=O)/C=C/c1c(-c3ccccc3)nc3ccccn13)C2` [Compound 9], half-maximal inhibition (IC50) was put at 6.11 µM and the “inhibitory activity against TGF-β” value is “showed inhibitory activity”.

In the case of `O=C(/C=C/c1c(-c2ccccc2)nc2ccccn12)N1CCOCC1` [Compound 8], the IC50 (in general, the concentration at which inhibition is half-maximal) was 3.72 µM and the “inhibitory activity against TGF-β” value is “showed inhibitory activity”.

Regarding `COc1cc2c(cc1OC)CN(C(=O)/C=C/c1c(-c3ccccc3)nc3ccc(F)cn13)C2` [Compound 10], the IC50 was found to be 4.32 µM and the “inhibitory activity against TGF-β” value is given as “showed inhibitory activity”.

With `COc1cc2c(cc1OC)CN(C(=O)/C=C/c1c(-c3ccc(F)cc3)nc3ccccn13)C2` [Compound 11], the 50% inhibitory concentration (IC50) is 3.52 µM and the “inhibitory activity against TGF-β” value is on record as “showed inhibitory activity”.

Consider `COc1cc2c(cc1OC)CN(C(=O)/C=C/c1c(-c3ccc(Cl)cc3)nc3ccccn13)CC2` [Compound 6], for which the 50% inhibitory concentration (IC50) stood at 5.45 µM and the “inhibitory activity against TGF-β” value is on record as “showed inhibitory activity”.

In the case of `COc1cc2c(cc1OC)CN(C(=O)/C=C/c1c(-c3ccccc3)n(C)c3ncccc13)CC2` [SIS3, reference compound], it took 2.65 µM to reach half-maximal inhibition (IC50).
